Laboratory results from the NIST ThermoML archive (doi:10.1021/je700428f).
± gives the expanded uncertainty stated by the source.

Assay: xn = mol fraction of the nth substance listed
Conditions: 101 kPa, Liquid; for viscosity: Capillary tube (Ostwald / Ubbelohde) method

COC(C)(C)C [2-methoxy-2-methylpropane] + CCCCCCCCCC
Conditions	mass density [kg/m3]	viscosity [mPa·s]
273.15 K, x1 = 0.1016	–	1.2 ± 0.011
273.15 K, x1 = 0.1019	745.52 ± 0.54	–
273.15 K, x1 = 0.2002	–	1.093 ± 0.011
273.15 K, x1 = 0.2041	746.17 ± 0.53	–
273.15 K, x1 = 0.3003	–	1.004 ± 0.011
273.15 K, x1 = 0.3077	747.06 ± 0.53	–
273.15 K, x1 = 0.3999	748 ± 0.53	–
273.15 K, x1 = 0.4013	–	0.909 ± 0.01
273.15 K, x1 = 0.4992	–	0.822 ± 0.01
273.15 K, x1 = 0.5005	749.23 ± 0.52	–
273.15 K, x1 = 0.6005	–	0.741 ± 0.01
273.15 K, x1 = 0.6066	750.84 ± 0.52	–
273.15 K, x1 = 0.6866	752.32 ± 0.52	–
273.15 K, x1 = 0.7	–	0.659 ± 0.009
273.15 K, x1 = 0.7973	754.83 ± 0.52	–
273.15 K, x1 = 0.8005	–	0.584 ± 0.009
273.15 K, x1 = 0.8996	–	0.513 ± 0.009
273.15 K, x1 = 0.8999	757.82 ± 0.52	–
273.15 K, x1 = 1	761.34 ± 0.5	–
278.15 K, x1 = 0.1016	–	1.092 ± 0.011
278.15 K, x1 = 0.1019	741.7 ± 0.54	–
278.15 K, x1 = 0.2002	–	1.002 ± 0.011
278.15 K, x1 = 0.2041	742.28 ± 0.54	–
278.15 K, x1 = 0.3003	–	0.924 ± 0.01
278.15 K, x1 = 0.3077	743.09 ± 0.54	–
278.15 K, x1 = 0.3999	743.94 ± 0.53	–
278.15 K, x1 = 0.4013	–	0.841 ± 0.01
278.15 K, x1 = 0.4992	–	0.765 ± 0.01
278.15 K, x1 = 0.5005	745.06 ± 0.53	–
278.15 K, x1 = 0.6005	–	0.689 ± 0.01
278.15 K, x1 = 0.6066	746.53 ± 0.53	–
278.15 K, x1 = 0.6866	747.9 ± 0.53	–
278.15 K, x1 = 0.7	–	0.615 ± 0.009
278.15 K, x1 = 0.7973	750.21 ± 0.53	–
278.15 K, x1 = 0.8005	–	0.547 ± 0.009
278.15 K, x1 = 0.8996	–	0.481 ± 0.009
278.15 K, x1 = 0.8999	752.99 ± 0.52	–
278.15 K, x1 = 1	756.14 ± 0.51	–
283.15 K, x1 = 0.1016	–	1.001 ± 0.011
283.15 K, x1 = 0.1019	737.88 ± 0.55	–
283.15 K, x1 = 0.2002	–	0.923 ± 0.01
283.15 K, x1 = 0.2041	738.38 ± 0.55	–
283.15 K, x1 = 0.3003	–	0.855 ± 0.01
283.15 K, x1 = 0.3077	739.1 ± 0.54	–
283.15 K, x1 = 0.3999	739.86 ± 0.54	–
283.15 K, x1 = 0.4013	–	0.779 ± 0.01
283.15 K, x1 = 0.4992	–	0.713 ± 0.009
283.15 K, x1 = 0.5005	740.87 ± 0.54	–
283.15 K, x1 = 0.6005	–	0.643 ± 0.009
283.15 K, x1 = 0.6066	742.2 ± 0.53	–
283.15 K, x1 = 0.6866	743.44 ± 0.53	–
283.15 K, x1 = 0.7	–	0.575 ± 0.009
283.15 K, x1 = 0.7973	745.55 ± 0.53	–
283.15 K, x1 = 0.8005	–	0.513 ± 0.009
283.15 K, x1 = 0.8996	–	0.452 ± 0.009
283.15 K, x1 = 0.8999	748.12 ± 0.53	–
283.15 K, x1 = 1	751.02 ± 0.51	–
288.15 K, x1 = 0.1016	–	0.923 ± 0.01
288.15 K, x1 = 0.1019	734.04 ± 0.55	–
288.15 K, x1 = 0.2002	–	0.856 ± 0.01
288.15 K, x1 = 0.2041	734.47 ± 0.55	–
288.15 K, x1 = 0.3003	–	0.793 ± 0.01
288.15 K, x1 = 0.3077	735.1 ± 0.55	–
288.15 K, x1 = 0.3999	735.77 ± 0.55	–
288.15 K, x1 = 0.4013	–	0.726 ± 0.01
288.15 K, x1 = 0.4992	–	0.664 ± 0.009
288.15 K, x1 = 0.5005	736.66 ± 0.54	–
288.15 K, x1 = 0.6005	–	0.601 ± 0.009
288.15 K, x1 = 0.6066	737.84 ± 0.54	–
288.15 K, x1 = 0.6866	738.97 ± 0.54	–
288.15 K, x1 = 0.7	–	0.54 ± 0.009
288.15 K, x1 = 0.7973	740.88 ± 0.54	–
288.15 K, x1 = 0.8005	–	0.481 ± 0.009
288.15 K, x1 = 0.8996	–	0.426 ± 0.009
288.15 K, x1 = 0.8999	743.23 ± 0.54	–
288.15 K, x1 = 1	745.85 ± 0.52	–
293.15 K, x1 = 0.1016	–	0.855 ± 0.01
293.15 K, x1 = 0.1019	730.2 ± 0.56	–
293.15 K, x1 = 0.2002	–	0.795 ± 0.01
293.15 K, x1 = 0.2041	730.55 ± 0.56	–
293.15 K, x1 = 0.3003	–	0.743 ± 0.009
293.15 K, x1 = 0.3077	731.09 ± 0.55	–
293.15 K, x1 = 0.3999	731.66 ± 0.55	–
293.15 K, x1 = 0.4013	–	0.678 ± 0.009
293.15 K, x1 = 0.4992	–	0.622 ± 0.009
293.15 K, x1 = 0.5005	732.44 ± 0.55	–
293.15 K, x1 = 0.6005	–	0.563 ± 0.009
293.15 K, x1 = 0.6066	733.47 ± 0.55	–
293.15 K, x1 = 0.6866	734.47 ± 0.55	–
293.15 K, x1 = 0.7	–	0.507 ± 0.009
293.15 K, x1 = 0.7973	736.17 ± 0.54	–
293.15 K, x1 = 0.8005	–	0.454 ± 0.009
293.15 K, x1 = 0.8996	–	0.402 ± 0.009
293.15 K, x1 = 0.8999	738.3 ± 0.54	–
293.15 K, x1 = 1	740.65 ± 0.53	–
298.15 K, x1 = 0.1016	–	0.797 ± 0.01
298.15 K, x1 = 0.1019	726.35 ± 0.57	–
298.15 K, x1 = 0.2002	–	0.742 ± 0.009
298.15 K, x1 = 0.2041	726.62 ± 0.56	–
298.15 K, x1 = 0.3003	–	0.692 ± 0.009
298.15 K, x1 = 0.3077	727.06 ± 0.56	–
298.15 K, x1 = 0.3999	727.53 ± 0.56	–
298.15 K, x1 = 0.4013	–	0.635 ± 0.009
298.15 K, x1 = 0.4992	–	0.584 ± 0.009
298.15 K, x1 = 0.5005	728.19 ± 0.56	–
298.15 K, x1 = 0.6005	–	0.531 ± 0.009
298.15 K, x1 = 0.6066	729.07 ± 0.55	–
298.15 K, x1 = 0.6866	729.94 ± 0.55	–
298.15 K, x1 = 0.7	–	0.479 ± 0.009
298.15 K, x1 = 0.7973	731.44 ± 0.55	–
298.15 K, x1 = 0.8005	–	0.428 ± 0.009
298.15 K, x1 = 0.8996	–	0.379 ± 0.009
298.15 K, x1 = 0.8999	733.33 ± 0.55	–
298.15 K, x1 = 1	735.4 ± 0.54	–
303.15 K, x1 = 0.1016	–	0.744 ± 0.009
303.15 K, x1 = 0.1019	722.46 ± 0.57	–
303.15 K, x1 = 0.2002	–	0.695 ± 0.009
303.15 K, x1 = 0.2041	722.68 ± 0.57	–
303.15 K, x1 = 0.3003	–	0.65 ± 0.009
303.15 K, x1 = 0.3077	723.02 ± 0.57	–
303.15 K, x1 = 0.3999	723.38 ± 0.56	–
303.15 K, x1 = 0.4013	–	0.597 ± 0.009
303.15 K, x1 = 0.4992	–	0.55 ± 0.009
303.15 K, x1 = 0.5005	723.93 ± 0.56	–
303.15 K, x1 = 0.6005	–	0.5 ± 0.009
303.15 K, x1 = 0.6066	724.65 ± 0.56	–
303.15 K, x1 = 0.6866	725.39 ± 0.56	–
303.15 K, x1 = 0.7	–	0.452 ± 0.009
303.15 K, x1 = 0.7973	726.66 ± 0.56	–
303.15 K, x1 = 0.8005	–	0.405 ± 0.009
303.15 K, x1 = 0.8996	–	0.358 ± 0.009
303.15 K, x1 = 0.8999	728.32 ± 0.55	–
303.15 K, x1 = 1	730.1 ± 0.55	–
308.15 K, x1 = 0.1016	–	0.698 ± 0.009
308.15 K, x1 = 0.1019	718.59 ± 0.58	–
308.15 K, x1 = 0.2002	–	0.653 ± 0.009
308.15 K, x1 = 0.2041	718.72 ± 0.58	–
308.15 K, x1 = 0.3003	–	0.606 ± 0.009
308.15 K, x1 = 0.3077	718.96 ± 0.57	–
308.15 K, x1 = 0.3999	719.22 ± 0.57	–
308.15 K, x1 = 0.4013	–	0.562 ± 0.009
308.15 K, x1 = 0.4992	–	0.519 ± 0.009
308.15 K, x1 = 0.6005	–	0.474 ± 0.009
308.15 K, x1 = 0.7	–	0.428 ± 0.009
308.15 K, x1 = 0.8005	–	0.382 ± 0.009
